Target: T1, human GPR119 (Homo sapiens, UniProt Q8TDV5)
T1 construct: expressed in transfected cells; host or cells: HEK293 (transient transfection, Lipofectamine 2000)
T1 sequence (Q8TDV5 1-335): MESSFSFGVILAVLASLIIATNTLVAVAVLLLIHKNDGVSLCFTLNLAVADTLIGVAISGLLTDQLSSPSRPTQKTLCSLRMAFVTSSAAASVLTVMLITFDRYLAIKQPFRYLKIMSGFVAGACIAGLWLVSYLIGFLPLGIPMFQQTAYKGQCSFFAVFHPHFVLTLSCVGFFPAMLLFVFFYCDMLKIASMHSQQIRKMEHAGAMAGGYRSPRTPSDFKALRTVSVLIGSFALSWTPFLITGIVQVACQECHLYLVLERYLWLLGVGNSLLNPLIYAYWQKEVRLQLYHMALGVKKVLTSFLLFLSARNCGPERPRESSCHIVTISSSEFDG
Assay: In vitro cyclic AMP assay (Cisbio HTRF) in HEK293 cells transfected with human GPR119
Type: cell-based
Settings: cAMP; for activation at 10 µM: 1 h, % Induction @ 10 μM; for EC50: Emax varies between 65 to 80%
Experimental: A. In Vitro Cyclic AMP Assay:
cAMP measurements were done using a Cisbio dynamic 2 HTRF kit (Cisbio, Bedford, Mass.) according to the manufacturer's protocol. Briefly, HEK293 cells (0.2×10^6/well) were plated in a 24 well plate and incubated overnight at 37° C. Cells were transfected with either empty vector DNA or human GPR119 expression plasmid DNA using Lipofectamine 2000 (Invitrogen). After 24 h, transfected cells were harvested, counted and plated at 1000 cells/5 ul in a black 384 welled small volume plate. Cells were treated with desired concentrations of compounds and incubated for 60 min at room temperature. Lysis buffer containing cAMP-d2 and cryptate conjugate were added and incubated for 1 h. HRTF ratio was measured on a microplate reader (BMG Labtech., Germany) at an excitation wavelength of 337 nm and emission wavelengths of 665 and 620 nm with an integration time of 400 μsec. Data were analyzed using Graphpad Prism (Graphpad software; San Diego Calif.) for EC50 determination.
The results are as given in Table I as % Induction@ 10 μM, Table II as % Induction@ 10 μM and EC 50 in nM

| Compound | activation at 10 µM (Table I) | activation at 10 µM (Table II) | EC50 (Table II) | EC50 (Table I) |
| --- | --- | --- | --- | --- |
| CC(C)(C)OC(=O)N1CCC(c2nc3cc(-c4ccc(C#N)cc4)ccc3o2)CC1 [EXAMPLE-9, Tert-butyl 4-[5-(4-cyanophenyl)benzo[d]oxazol-2-yl]piperidine-1-carboxylate] | 46.8% |  |  |  |
| CCCS(=O)(=O)N1CCC(c2nc3cc(-c4ccc(C(N)=O)c(F)c4)ccc3o2)CC1 [EXAMPLE-53, 2-fluoro-4-{2-[1-(propylsulfonyl)piperidin-4-yl]benzo[d]oxazol-5-yl}benzamide] | 39.9% |  |  |  |
| CC(C)(C)OC(=O)N1CCC(c2ccc3oc(-c4ccc(S(C)(=O)=O)cc4F)nc3c2)CC1 [EXAMPLE-60, Tert-butyl 4-{2-[2-fluoro-4-(methylsulfonyl)phenyl]benzo[d]oxazol-5-yl}piperidine-1-carboxylate] |  | 72.8% | 25 to 50 nM |  |
| CC(C)C(=O)N1CCC(c2nc3cc(-c4ccc(-n5cnnn5)cc4F)ccc3o2)CC1 [EXAMPLE-32, 1-{4-[5-(2-fluoro-4-(1H-tetrazol-1-yl)phenyl)benzo[d]oxazol-2-yl]piperidin-1-yl}-2-methylpropan-1-one] | 63.9% |  |  | 50 to 100 nM |
| O=C(OC1CCC1)N1CCC(c2nc3cc(-c4ccc(-n5cnnn5)cc4F)ccc3o2)CC1 [EXAMPLE-23, Cyclobutyl 4-{5-[2-fluoro-4-(1H-tetrazol-1-yl)phenyl]benzo[d]oxazol-2-yl}piperidine-1-carboxylate] | 69.6% |  |  | 25 to 50 nM |
| CC(C)(C)OC(=O)N1CCC(c2nc3cc(-c4ccc(C#N)c(F)c4)ccc3o2)CC1 [EXAMPLE-17, Tert-butyl 4-[5-(4-cyano-3-fluorophenyl)benzo[d]oxazol-2-yl]piperidine-1-carboxylate] | 41.5% |  |  |  |
| CC(C)OC(=O)N1CCC(c2ccc3oc(-c4ccc(C(F)(F)F)cc4)nc3c2)CC1 [EXAMPLE-77, Isopropyl 4-{2-[4-(trifluoromethyl)phenyl]benzo[d]oxazol-5-yl}piperidine-1-carboxylate] |  | 80.4% | 50 to 250 nM |  |
| CC(C)OC(=O)N1CCC(c2nc3cc(-c4ccc(-n5cnnn5)c(F)c4)ccc3o2)CC1 [EXAMPLE-18, Isopropyl 4-{5-[3-fluoro-4-(1H-tetrazol-1-yl)phenyl]benzo[d]oxazol-2-yl}piperidine-1-carboxylate] | 36.4% |  |  |  |
| CCOC(=O)N1CCC(c2ccc3nc(-c4ccc(S(C)(=O)=O)cc4F)oc3c2)CC1 [EXAMPLE-72, Ethyl 4-{2-[2-fluoro-4-(methylsulfonyl)phenyl]benzo[d]oxazol-6-yl}piperidine-1-carboxylate] |  | 81.6% | ≤ 25 nM |  |
| CCc1cnc(N2CCC(c3ccc4[nH]c(-c5ccc(S(C)(=O)=O)cc5F)nc4c3)CC2)nc1 [EXAMPLE-58, 5-[1-(5-ethylpyrimidin-2-yl)piperidin-4-yl]-2-[2-fluoro-4-(methylsulfonyl)phenyl]-1H-benzo[d]imidazole] |  | 32.2% |  |  |
| CC(C)(C)OC(=O)N1CCC(c2cc(F)c3oc(-c4ccc(S(C)(=O)=O)cc4F)nc3c2)CC1 [EXAMPLE-63, Tert-butyl 4-{7-fluoro-2-[2-fluoro-4-(methylsulfonyl)phenyl]benzo[d]oxazol-5-yl}piperidine-1-carboxylate] |  | 56.6% |  |  |
| CC(C)OC(=O)N1CCC(c2ccc3sc(-c4ccc(S(C)(=O)=O)cc4F)nc3c2)CC1 [EXAMPLE-73] |  | 46% | 500 to 1000 nM |  |
| CC(C)(C)OC(=O)N1CC=C(c2ccc3[nH]c(-c4ccc(S(C)(=O)=O)cc4F)nc3c2)CC1 [EXAMPLE-56, Tert-butyl 4-{2-[2-fluoro-4-(methylsulfonyl)phenyl]-1H-benzo[d]imidazol-5-yl}-5,6-dihydropyridine-1(2H)-carboxylate] |  | 38.5% |  |  |
| CCc1cnc(N2CCC(c3ccc4oc(-c5ccc(S(C)(=O)=O)cc5F)nc4c3)CC2)nc1 [EXAMPLE-62, 5-[1-(5-ethylpyrimidin-2-yl)piperidin-4-yl]-2-[2-fluoro-4-(methylsulfonyl)phenyl]benzo[d]oxazole] |  | 59.3% | < 500 nM |  |
| CC(C)(C)OC(=O)N1CCC(c2nc3cc(-c4ccc(S(C)(=O)=O)cc4F)cc(F)c3o2)CC1 [EXAMPLE-8, Tert-butyl 4-{7-fluoro-5-[2-fluoro-4-(methylsulfonyl)phenyl]benzo[d]oxazol-2-yl}piperidine-1-carboxylate] | 66.7% |  |  | 25 to 50 nM |
| CC(C)(C)OC(=O)N1CCC(c2nc3cc(-c4ccc(S(C)(=O)=O)c(F)c4)ccc3o2)CC1 [EXAMPLE-10, Tert-butyl 4-{5-[3-fluoro-4-(methylsulfonyl)phenyl]benzo[d]oxazol-2-yl}piperidine-1-carboxylate] | 59.2% |  |  | 500 to 1000 nM |
| CC(C)c1noc(C2CCN(c3ccc4oc(-c5ccc(S(C)(=O)=O)cc5F)nc4c3)CC2)n1 [EXAMPLE-83, 2-[2-fluoro-4-(methylsulfonyl)phenyl]-5-[4-(3-isopropyl-1,2,4-oxadiazol-5-yl)piperidin-1-yl]benzo[d]oxazole] |  | 57.6% |  |  |
| CC(C)(C)OC(=O)N1CC=C(c2ccc3nc(-c4ccc(S(C)(=O)=O)cc4F)sc3c2)CC1 [EXAMPLE-65, Tert-butyl 4-{2-[2-fluoro-4-(methylsulfonyl)phenyl]benzo[d]thiazol-6-yl}-5,6-dihydropyridine-1(2H)-carboxylate] |  | 32.1% |  |  |
| CC(C)(C)OC(=O)N1CC=C(c2cc3cc(-c4ccc(C(N)=O)c(F)c4)ccc3o2)CC1 [EXAMPLE-52, Tert-butyl 4-[5-(4-carbamoyl-3-fluorophenyl)benzofuran-2-yl]-5,6-dihydropyridine-1(2H)-carboxylate] | 68.4% |  |  | 100 to 500 nM |
| CCOC(=O)N1CCC(c2ccc3oc(-c4ccc(S(C)(=O)=O)cc4F)nc3c2)CC1 [EXAMPLE-69, Ethyl 4-{2-[2-fluoro-4-(methylsulfonyl)phenyl]benzo[d]oxazol-5-yl}piperidine-1-carboxylate] |  | 71.8% | 25 to 50 nM |  |
| CC(C)(C)OC(=O)N1CCC(c2nc3cc(-c4ccc(-c5nnn[nH]5)c(F)c4)ccc3o2)CC1 [EXAMPLE-19, Tert-butyl 4-{5-[3-fluoro-4-(1H-tetrazol-5-yl)phenyl]benzo[d]oxazol-2-yl}piperidine-1-carboxylate] | 37.2% |  |  |  |
| CC(C)(C)OC(=O)N1CCC(c2ccc3oc(-c4ccc(C(F)(F)F)cc4)nc3c2)CC1 [EXAMPLE-70, Tert-butyl 4-{2-[4-(trifluoromethyl)phenyl]benzo[d]oxazol-5-yl}piperidine-1-carboxylate] |  | 64.7% | ≤ 25 nM |  |
| Fc1cc(-n2cnnn2)ccc1-c1ccc2oc(C3CCNCC3)nc2c1 [EXAMPLE-26, 5-[2-fluoro-4-(1H-tetrazol-1-yl)phenyl]-2-(piperidin-4-yl)benzo[d]oxazole] | 74% |  |  |  |
| CC(C)(C)OC(=O)N1CCC(c2ccc3[nH]c(-c4ccc(S(C)(=O)=O)cc4F)nc3c2)CC1 [EXAMPLE-57, Tert-butyl 4-{2-[2-fluoro-4-(methylsulfonyl)phenyl]-1H-benzo[d]imidazol-5-yl}piperidine-1-carboxylate] |  | 47% |  |  |
| CC(C)Oc1ccc(-c2ccc3oc(C4CCN(C(=O)OC(C)(C)C)CC4)nc3c2)cc1F [EXAMPLE-22, Tert-butyl 4-[5-(3-fluoro-4-isopropoxyphenyl)benzo[d]oxazol-2-yl]piperidine-1-carboxylate] | 64.5% |  |  |  |
| CC(C)(C)OC(=O)N1CCC(c2ccc3sc(-c4ccc(S(C)(=O)=O)cc4F)nc3c2)CC1 [EXAMPLE-68, Tert-butyl 4-{2-[2-fluoro-4-(methylsulfonyl)phenyl]benzo[d]thiazol-5-yl}piperidine-1-carboxylate] |  | 72.7% |  |  |
| CC(C)OC(=O)N1CCC(c2nc3cc(-c4ccc(C(N)=O)c(Cl)c4)ccc3o2)CC1 [EXAMPLE-30, Isopropyl 4-[5-(4-carbamoyl-3-chlorophenyl)benzo[d]oxazol-2-yl]piperidine-1-carboxylate] | 62.2% |  |  | 500 to 1000 nM |
| CCC(C)OC(=O)N1CCC(c2nc3cc(-c4ccc(-n5cnnn5)cc4F)ccc3o2)CC1 (centres unmarked) [EXAMPLE-24, Sec-butyl 4-{5-[2-fluoro-4-(1H-tetrazol-1-yl)phenyl]benzo[d]oxazol-2-yl}piperidine-1-carboxylate] | 67.5% |  |  | ≤ 25 nM |
| CCc1cnc(N2CCC(c3nc4cc(-c5ccc(-n6cnnn6)cc5F)ccc4o3)CC2)nc1 [EXAMPLE-16, 2-[1-(5-ethylpyrimidin-2-yl)piperidin-4-yl]-5-[2-fluoro-4-(1H-tetrazol-1-yl)phenyl]benzo[d]oxazole] | 43.7% |  |  |  |
| CC(C)(C)OC(=O)N1CCC(c2nc3cc(-c4ccc(S(C)(=O)=O)cc4F)ccc3[nH]2)CC1 [EXAMPLE-2, Tert-butyl 4-{5-[2-fluoro-4-(methylsulfonyl)phenyl]-1H-benzo[d]imidazol-2-yl}piperidine-1-carboxylate] | 35.8% |  |  |  |

Reference: patent US9181214B2 (RHIZEN PHARMACEUTICALS SA, priority 2011, dated 2015)
